Reference: patent EP1219604A1, “METHOD FOR IMPROVING THE SOLUBILITY OF TRICYCLIC AMINO ALCOHOL DERIVATIVES” (Asahi Kasei Kabushiki Kaisha, priority 1999, dated 2001)
Read-outs that look alike come from different tables or passages of the source.

Columns and labels:
[1] = Solubility in water, 1st fluid and 2nd fluid of the Japanese pharmacopeia disintegration test (shaking, filtration, HPLC); type: physicochemical; settings: thermodynamic from solid
Procedure: That is, the solutions used were the water specified in the disintegration test method of the 13th edition of the Japanese pharmacopeia, the 1st fluid (a model of human gastric juice) and the 2nd fluid(a model of human intestinal juice). The processes for preparing them are as follows:
The 1st fluid (a model of human gastric juice) was an aqueous solution (pH about 1.2) prepared by dissolving sodium chloride (2.0 g) and hydrochloric acid (7.0 mL) in an amount of water such that the total volume is 1,000 mL.
The 2nd fluid (a model of human intestinal juice) was an aqueous solution (pH about 6.8) prepared by mixing a 0.2 M potassium dihydrogen phosphate aqueous solution (250 mL) with a 0.2 N sodium hydroxide aqueous solution (118 mL) and an amount of water such that the total volume is 1,000 mL.
The present compound (Compound A, B, C or D) in the amount of 20 mg was added to each solution (40 mL) set forth above, which was then shaken with a recipro-shaker (170 rpm) for 2 hours. Each sample (4 mL) obtained at 15, 30, 45, 60 and 120 minutes was filtered through a filter having a pore diameter of 0.45 µm to give a sample solution. The concentration of the said compound in the sample solution was determined by high performance liquid chromatography and the solubility was calculated. The high performance liquid chromatographic measurement was performed with HITACHI D-7000 (wave length: 254 nm; column: YMC-PACK C18; column temperature: 40°C; injection volume: 10 µL; flow rate: 1 mL/min; mobile phase: a solution obtained by dissolving sodium 1-octanesufonate (4.3 g) in a solution of phosphoric acid (1 mL) in water (1000 mL), and adding acetonitrile (400 mL) to 600 mL of the thus obtained solution . The retention time of each of Compounds A, B, C and D was about 20 minutes, about 14 minuets, about 25 minutes and about 27 minutes, respectively. […]
In this connection, the measurement was carried out according to the procedure of Reference Example 1.

[2] = Crystallinity by powder X-ray diffractometry; type: physicochemical; settings: for crystallinity: equation of crystallinity
From the text: Whether a compound of the general formula (1) is amorphous or not, or the degree of amorphous status thereof can be determined based on its crystallinity, for example, measured by powder X-ray diffractometry. Generally, the degree of amorphous status can be indicated with the following equation. Degree of Amorphous status = 100 - Crystallinity [formula]
Powder X-ray diffractometry is a method comprising irradiating a powder sample with X-ray to compulsively oscillate electrons contained in the sample material, and measuring at each angle of diffraction the diffraction intensity of the coherent scattering X-ray caused by the compulsively oscillated electrons. The measurement data is indicated with the X-ray diffraction pattern as a diffraction intensity with respect to each angle of diffraction. […] Therefore, an amorphous substance can be distinguished from a crystalline substance based on their X-ray diffraction patterns and/or crystallinities. The measurement by powdery X-ray diffractometry in accordance with the present invention can be carried out with Shimadzu Powder X-ray Diffractometer (XRD-6000) under the following measurement conditions.
• Anticathode: Cu • X-ray tube voltage: 40 kV • X-ray tube current: 30 mA • Goniometer • Driving axle: θ-2θ • Scanning range: 3-49.98° • Scanning rate: 2°/min
The crystallinity was obtained with the soft of Shimazu Powder X-ray Diffractometer by carrying out the corrected calculation treatment of the Lorentz polarization factor of the measured data, calculating the integrated intensity of the peak derived from crystalline substance (Icr) and the integrated intensity of the peak derived from amorphous substance (Ia),respectively and calculating the concentration of crystalline moiety in the test sample, that is the crystallinity based on the ratio thereof by the following equation: x =(1)/(1 + K ×(I a)/(I cr))× 100 [formula] wherein X is a crystallinity; Icr is an integrated intensity of crystalline moiety; Ia is an integrated intensity of amorphous moiety; K is a ratio of the crystalline moiety of X ray intensity scattered from a certain amount of a material to the amorphous moiety thereof (the calculation is usually done under K=1).
Each standard sample was subjected to a powder X-ray diffraction measurement to determine the peak height and crystallinity of each standard sample (the powder X-ray diffraction pattern of the standard samples 1, 2, 3 and 4 being shown in Figures 1, 8, 9 and 10, respectively). A measurement by powdery X-ray diffractometry was carried out with Shimadzu Powder X-ray Diffractometer (XRD-6000) under the following measurement conditions.
Measurement condition: • Anticathode: Cu • X-ray tube voltage: 40 kV • X-ray tube current: 30 mA • Goniometer • Driving axle: θ-2θ • Scanning range: 3-50° • Scanning rate: 2°/min
The crystallinity was calculated with the soft of Shimadzu Powder X-ray Diffractometer. The thus obtained crystallinity of each standard sample was as follows:
These measurements were carried out based on the height of a diffraction peak as an indication, wherein the diffraction peak is characteristic of Compound A. The characteristic diffraction peak is a diffraction peak which can be distinguished from the diffraction peak derived from a pharmaceutically acceptable carrier and can characterize Compound A. Representative examples of the diffraction peak characteristic of Compound A include peaks at θ-2θ of about 8.5°, about 12.8°, about 16.2°, about 20.4°, about 21.4°, about 25.2° and about 26.9°. It is preferred to select a diffraction peak in which the relation between the height of diffraction peak and the crystallinity has a clear linearity.
With respect to each diffraction peak, a graph showing the correlation between the peak height and the crystallinity was made in which the peak height of each standard sample (vertical axis) is potted against the crystallinity (horizontal axis). […]

[3] = pH 1.2, simulated gastric fluid
[4] = pH 6.8, fassgf or other biorelevant
[5] = pH 1.2, simulated gastric fluid, 1st fluid (model of human gastric juice, pH about 1.2), after 2 hours, crystal form, read-out: Solubility (mg/mL) 1st fluid
[6] = pH 6.8, fassgf or other biorelevant, 2nd fluid (model of human intestinal juice, pH about 6.8), after 2 hours, crystal form, read-out: Solubility (mg/mL) 2nd fluid
[7] = water, solubility after 2 hours, compound in crystal form, 20 mg in 40 mL, read-out: Solubility (mg/mL) Water

Row | solubility at 2 h [1, 3] | solubility at 2 h [1, 4] | solubility at 2 h ([1]; water) | solubility at 2 h [1, 5] | solubility at 2 h [1, 6] | solubility at 2 h [1, 7] | crystallinity, another lot separately prepared [2] | crystallinity [2] | Structure (SMILES)
1 | 0.035 mg/mL | 0.012 mg/mL | 0.701 mg/mL |  |  |  |  |  | CS(=O)(=O)Nc1cc([C@@H](O)CNCCOc2ccc3c(c2)[nH]c2ccccc23)ccc1Br.Cl [Compound D, (R)-N-[5-[2-[2-(9H-carbazol-2-yloxy)ethylamino]-1-hydroxyethyl]-2-bromophenyl]methanesulfonamide hydrochloride]
2 |  |  |  | 0.003 mg/mL | 0.003 mg/mL | 1.34 mg/mL | 70.5% | 61.1% | CS(=O)(=O)Nc1cc([C@@H](O)CNCCOc2ccc3c(c2)[nH]c2ccccc23)ccc1O.O=C(O)C(O)C(O)C(=O)O [Compound B, (R)-N-[5-[2-[2-(9H-carbazol-2-yloxy)ethylamino]-1-hydroxyethyl]-2-hydroxyphenyl]methanesulfonamide D-tartrate]
3 |  |  |  | 0.002 mg/mL | 0.005 mg/mL | 0.123 mg/mL | 88.8% | 83.5% | CS(=O)(=O)Nc1cccc([C@@H](O)CNCCOc2ccc3c(c2)[nH]c2ccccc23)c1.Cl [Compound A, (R)-N-[3-[2-[2-(9H-carbazol-2-yloxy)ethylamino]-1-hydroxyethyl]phenyl]methanesulfonamide hydrochloride]
4 | 0.008 mg/mL | 0.014 mg/mL | 0.471 mg/mL |  |  |  | 72.0% | 70.3% | CS(=O)(=O)Nc1cc([C@@H](O)CNCCOc2ccc3c(c2)[nH]c2ccccc23)ccc1Cl.Cl [Compound C, (R)-N-[5-[2-[2-(9H-carbazol-2-yloxy)ethylamino]-1-hydroxyethyl]-2-chlorophenyl]methanesulfonamide hydrochloride]
